# Assay results published in patent US20180008688A1, “METHOD AND COMPOSITIONS FOR ENHANCING IMMUNOTHERAPEUTIC TREATMENT OF A CANCER” (Augusta University Research Institute, Inc., priority 2016, published 2018).
# Entries after “also recorded” stand apart in the source; their conditions may differ.
# Assays:
# [1] = tested on: T cells; experiment: Purified T cells activated with anti-CD3/CD28 with nutlin, IL-12, MG-132; type: cell-based, mouse
# Description: Regulation of p53 is complex, and it can be targeted by multiple pathways besides MDM2 (Chao C. C. (2015) Clin. Chim. Acta 438: 139-147). If IL-12 is rescuing T cells from nutlin, one possibility is that IL-12 might activate an alternative pathway of p53 degradation, not dependent on MDM2. To test this, purified T cells were activated (without any antigen-presenting cells or other cells) using anti-CD3/CD28 antibodies. T cells were activated in the presence or absence of nutlin with or without addition of recombinant IL-12.
# Finally, to test the hypothesis that IL-12 targeted p53 for proteolytic degradation via an alternated pathway, proteasomal function was inhibited using MG-132. T cells were activated using immobilized CD3/CD28 as above. […] CFSE proliferation tracked inversely with p53 levels. […] While MG-132 affects many intracellular pathways besides p53, these findings support the basic hypothesis that IL-12 bypasses nutlin by targeting p53 for degradation via an alternative route.
# [2] = tested on: B16-OVA tumors; experiment: RIP-mOVA mice with OT-I cells and B16-OVA tumors, immunotherapy with or without nutlin-3a; type: in vivo
# Method: It was then determined which of these opposing effects would prevail when the same antigen was both a tumor-antigen and self-antigen. RIP-mOVA mice expressing OVA as a self-antigen were implanted with B16-OVA tumors expressing OVA as a tumor antigen (Falo. Jr. et al., (1995) Nat. Med. 1: 649-653). Prior to tumor implantation, all mice received adoptive transfer of congenically-marked OT-I cells. After tumors were established, mice were treated with immunotherapy (PTEN-inhibitor plus chemotherapy), with or without nutlin-3a.
# RIP-mOVA mice bearing B16-OVA tumors were treated with a cocktail of blocking antibodies against CTLA-4 plus PD-1, PD-L1 and PD-L2, with or without concurrent nutlin-3a.
# (§1) Tumor implantation was performed as described (Sharma et al., (2007) J. Clin. Invest. 117: 2570-2582). VO-OHpic was given at 10 mg/kg/day i.p., in 10% DMSO/PBS. Cyclophosphamide was given at 150 mg/kg i.p×1 dose; and oxaliplatin at 5 mg/kg i.p×1 dose. Nutlin-3a was administered daily at 10 mg/kg/day i.p. For checkpoint blockade, mice received anti-CTLA-4 plus a cocktail of antibodies against the PD-1 pathway. Vaccines and T cell adoptive transfer studies were performed as described (Sharma et al., (2015) Sci. Advances. 1: e1500845).
# The immune-activating effect of p53 is context-specific for the tumor milieu: The immunogenic effect of nutlin-3a seemed paradoxical because in most settings p53 is thought to be immunosuppressive (Munoz-Fontela et al., (2016) Nat. Rev. lmmunol. 16: 741-750; Thomasova et al., (2012) Neoplasia 14: 1097-1101). It was considered that p53 actually plays two roles in the immune system: a self-tolerance role in normal tissues during physiologic cell death (Yoon et al., (2015) Science 349: 1261669); but a pro-inflammatory role in certain specialized contexts such as immune-surveillance of tumors (Munoz-Fontela et al., (2016) Nat. Rev. lmmunol. 16: 741-750). To test this, a model in which OVA-expressing tumors were implanted in RIP-mOVA mice (which constitutively express OVA in pancreatic islet cells) was used. OVA thus became both a normal tissue antigen and a tumor antigen.
# [3] = tested on: E.G7 tumors; experiment: E.G7 (EL4-OVA) tumors in wild-type hosts treated with oxaliplatin with or without nutlin-3a; type: in vivo, mouse; conditions: for Ly6C+/CD103+ dendritic cells in tumors: nutlin added to oxaliplatin
# Method: In vivo tumor studies: The B16F10 and E.G7 (EL4-OVA) cell lines were obtained from ATCC. B16-OVA (B16F10 transfected with full-length chicken ovalbumin) clone MO4 was according to Falo et al. ((1995) Nat. Med. 1: 649-653). B16F10 cells expressing EGFP protein (B16-GFP cells) were derived using lentiviral transfection. Tumor implantation was performed as described (Sharma et al., (2007) J. Clin. Invest. 117: 2570-2582), using 1×10^5 cells for B16F10 and 1×10^6 cells for other cell lines (large inocula were used to ensure rapid tumor engraftment and immune suppression). Tumors were implanted bilaterally in each mouse as a control for reproducible implantation technique; replicate tumor diameters in a single mouse were typically within ±15%. Tumor volume was calculated from orthogonal diameters using the formula V=L×W^2×π/6. Mice received approved euthanasia when tumors reached a size of 300 mm^2 (product of orthogonal diameters); death was never used a planned endpoint in any study.
# as §1
# VO-OHpic was given at 10 mg/kg/day i.p., in 10% DMSO/PBS. Cyclophosphamide was given at 150 mg/kg i.p×1 dose. Oxaliplatin was given at 5 mg/kg i.p×1 dose. Nutlin-3a was dissolved at 2 mg/ml in 10% DMSO in buffered saline and administered daily at 10 mg/kg/day i.p. The 10 mg/kg/day dose was at the lower end of the parenteral dosing range described for mice (Zhang et al., (2011) Drug Meta. Dispos. 39: 15-21). For checkpoint blockade, mice received anti-CTLA-4 (clone 9D9, BioXcell) plus a cocktail of antibodies against the PD-1 pathway: anti-PD-L2, clone TY25 (Yamazaki et al., (2002) J. Immunol. 169: 5538-5545); anti-PD-1, clone J43 (Agata et al., (1996) Int. Immunol. 8: 765-772); and anti-PD-L1, clone MIH7 (Tsushima et al., (2003) Eur. J. Immunol. 33: 2773-2782). A cocktail was used in order to block the PD-1 pathway as completely as possible and thus minimize any peculiarities of a single blocking antibody.
# [4] = nutlin, anti-CD3/CD28 activation
# [5] = nutlin added to checkpoint blockade
# [6] = nutlin-3a 10 mg/kg/day added to CTX/VO-OHpic, FIG. 13
# [7] = nutlin-3a 10 mg/kg/day added to CTX/VO-OHpic, FIG. 13, 10 mg/kg/day
smiles,measurement,setting,value
"COc1ccc(C2=NC(c3ccc(Cl)cc3)C(c3ccc(Cl)cc3)N2C(=O)N2CCNC(=O)C2)c(OC(C)C)c1 (single isomer, unassigned; (-)) [nutlin-3a, (−)-4-(4,5-Bis(4-chlorophenyl)-2-(2-isopropoxy-4-methoxyphenyl)-4,5-dihydro-1H-imidazole-1-carbonyl)piperazin-2-one]",T cell proliferation,[1]; [4],suppressed proliferation of T cells
same,p53 levels in activated T cells,[1]; [4],"progressively restored, and then markedly elevated"
same,p53 levels in activated T cells,"[1]; nutlin, anti-CD3/CD28 activation, listed as Nutlin",blocked the down-regulation of p53
same,effect of nutlin on p53-deficient T cells,[1]; p53-deficient T cells,no inhibitory effect
same,Ly6c+CD103+ dendritic cells in the tumors,[2]; [5],maintained expression
same,anti-tumor effect,[2]; [5],significantly enhancing and prolonging the anti-tumor effect
same,autoimmune diabetes,"[2]; nutlin added to checkpoint blockade (CTLA-4 plus PD-1, PD-L1, PD-L2 antibodies)",protected recipient subjects from autoimmune diabetes
same,p53 in OT-I T cells in pancreatic LNs,[2]; nutlin added to immunotherapy,increase p53
same,p53 in OT-I T cells in TDLNs,"[2]; nutlin added to immunotherapy, same animals",complete loss of detectable p53 expression
same,anti-tumor effect,[2]; [6],markedly enhanced the anti-tumor response
same,autoimmune diabetes,[2]; [6],fully protected from diabetes
same,anti-tumor effect,[2]; [7],enhanced and prolonged
same,autoimmune diabetes,[2]; [7],protected the mice from lethal autoimmunity
same,Ly6C+/CD103+ dendritic cells in tumors,[3],sustained expression
same,Ly6C+/CD103+ dendritic cells in tumors,[3]; listed as nutlin,maintained long-term expression
same,anti-tumor effect,"[3]; nutlin-3a added to one dose of oxaliplatin, FIG. 8C",markedly prolonged the anti-tumor effect; also recorded: significantly increased the intensity and duration of the anti-tumor effect
same,IL-12 production,[3]; nutlin-3a added to oxaliplatin,enhanced IL-12 production
